Some results are limits rather than exact numbers.

In one experiment the test system is A375 cells. The experiment can be described thus: MTT cytotoxicity assay, A375. The format is cell-based, human. The note with it: for cytotoxicity at 100 µM: Homo sapiens, A-375, 24 h, A375, 100 μΜ, read-out: Cell Toxicity A375 % (100 μΜ). How it is done:
Furthermore, the coumarin compounds synthesized in this study were also evaluated for their cytotoxicity against A549 (adenocarcinomic human alveolar basal epithelial cells) and A375 (human melanoma) cell lines.
This protocol was used for the evaluation of cell viability and all the cell lines. It must be noted that this assay describes the count of cells that remain alive after the treatment. For the experimental procedure a standard solution of MTT 1mg/mL in PBS was prepared which after filtration ([…] filter (Millipore, Carrigtwohill, Ireland)) was stored in the dark (4–8 °C) until use. In a 96-well plate, HaCaT, A549 and A375 cells were seeded in a number of 30 × 10^4 cells/well for each evaluation series respectively. The cells were incubated (37 °C, 5% CO2) for 24 h, followed by the addition of the tested analogues (100 μM, diluted in DMEM) and another 24-h incubation. Next, appropriate amount of MTT was added in the tested wells and the plate returned to the incubator for the next 4 h for the formation of the formazan crystals. The formazan crystals were then redissolved by adding DMSO (100 μL) and stirring lightly for 40 min, after which the absorbance was measured in a plate reader at 540 nm with a reference absorbance of 720 nm.
All samples were tested in triplicate, against a control (only cells), blank (no cells), and positive control (100 μM standard silibinin solution was used as a “cell-killing” standard).
In general terms: Tetrazolium assays rely on reduction of a dye to a coloured formazan, in cell work by metabolically active cells.

Another experiment addresses T1, soybean LOX (Glycine max, UniProt P08170).
T1 construct: purchased Sigma-Aldrich and Fluka
T1 sequence (P08170 1-839): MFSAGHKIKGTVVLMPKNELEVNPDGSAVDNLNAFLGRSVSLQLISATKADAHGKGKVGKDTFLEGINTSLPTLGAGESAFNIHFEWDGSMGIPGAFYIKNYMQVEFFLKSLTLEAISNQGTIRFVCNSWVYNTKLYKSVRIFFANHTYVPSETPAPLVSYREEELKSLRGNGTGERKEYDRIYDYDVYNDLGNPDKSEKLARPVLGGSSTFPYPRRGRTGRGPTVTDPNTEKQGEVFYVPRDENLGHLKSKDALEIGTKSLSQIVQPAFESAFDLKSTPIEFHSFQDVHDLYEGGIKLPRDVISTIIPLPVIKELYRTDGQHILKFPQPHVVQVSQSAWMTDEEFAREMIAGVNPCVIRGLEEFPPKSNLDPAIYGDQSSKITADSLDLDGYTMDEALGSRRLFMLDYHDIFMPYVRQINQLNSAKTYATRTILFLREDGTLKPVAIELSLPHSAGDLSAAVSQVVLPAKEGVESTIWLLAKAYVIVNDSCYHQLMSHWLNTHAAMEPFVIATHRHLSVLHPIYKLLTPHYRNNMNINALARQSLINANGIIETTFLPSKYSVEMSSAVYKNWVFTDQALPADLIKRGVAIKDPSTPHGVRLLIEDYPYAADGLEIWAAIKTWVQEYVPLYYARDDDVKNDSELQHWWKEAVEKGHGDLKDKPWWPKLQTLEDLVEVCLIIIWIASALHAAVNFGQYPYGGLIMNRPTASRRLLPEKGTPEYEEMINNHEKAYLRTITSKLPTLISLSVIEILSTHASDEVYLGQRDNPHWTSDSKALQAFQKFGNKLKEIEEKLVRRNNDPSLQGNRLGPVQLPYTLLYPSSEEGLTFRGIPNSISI
The experiment can be described thus: Inhibition of soybean LOX. As to conditions: for inhibition at 100 µM: read-out: Soybean LOX % inhibition (100 μΜ). The format is biochemical. The procedure: Soybean LOX is a plant enzyme which has been used widely as a prototype for studying the functional and structural properties of the homologous family of lipoxygenases, presenting satisfactory homology with the human 5-LOX [14]. Linoleic acid (LA) is a standard substrate for plant LOXs. In this protocol, all new molecules were tested as inhibitors of soybean LOX as an indication of their anti-inflammatory activity (Table 3).
For the reference sample in a UV cuvette 10 μL of the test sample (100 μM diluted in DMSO), 200 μL LOX solution (diluted in NaCl 0.9%), 100 μL LA (diluted in Tris buffer) and Tris buffer solution (pH 9) were added to a final volume of 1 mL. Respectively for the measurement sample, also in a UV cuvette 10 μL of test sample, 200 μL LOX solution, and Tris buffer solution (pH 9) were added to a final volume of 1mL. Standard and blank samples were prepared in the same way using DMSO (solvent) instead of the tested coumarin analogues.

The subject of a further experiment is HaCaT cells. As to the kind of experiment: DCF-DA assay (intracellular ROS after H2O2). The format is cell-based, human. The note with it: H2O2 treatment, 24 h; for inhibition at 100 µM: Homo sapiens, 100 μΜ, read-out: DCFDA Assay, % (100 μΜ). An excerpt:
In the setting of evaluating bioactive compounds in terms of antioxidant capacity in various cell lines, DCF-DA is the most widely used assay for the detection of intracellular H2O2 and oxidative stress. DCF-DA is cell-permeable and is hydrolyzed intracellularly to the DCFH carboxylate anion, which is retained in the cell.
DCFDA is a fluorescent dye that measures the activity of hydroxyl radicals, peroxyl radicals, and other reactive oxygen species (ROS) within the cell. The DCFDA analysis protocol is based on the diffusion of DCFDA into the cell. It is then deacetylated from cellular esterases to a non-fluorescent compound, which is later oxidized by ROS to 2’,7’ -dichlorofluoroscein (DCF). The produced compound (DCF) is fluorescent and is detected by fluorescence spectroscopy at 485/535 nm (excitation/emission).
For the experimental procedure a standard solution of DCF-DA (20mM) in DMSO was prepared which was stored in the dark (−20 °C) until use. In a 96-well plate, cells were cultured to a density of 3 × 10^4 cells/well.
The cells remained in the incubator (37 °C, 5% CO2) for 24 h, after which an appropriate amount of H2O2 (2 mM) was added and the dish was returned for incubation for the next 2 h. This was followed by the addition of the test substances (100μM) and incubation for 24 h. At the end of the treatment time, all wells were washed with PBS, and DCF-DA solution (working concentration: 10 μM) (in 200 μL of nutrient) was added and incubated for 40 min.
After incubation, the medium with the DCF-DA was removed and replaced with FBS-free DMEM. The measurement of the […] was made immediately after that in a plate reader at 495/530 nm (excitation/emission).
All samples were tested in triplicates, against a control (without effects), blank (without cells), and positive control (standard 100 μM Ascorbic acid solution was used).
The percentage of antioxidant capacity (%) was calculated according to the following Equation (6) evaluating the presence of ROS [42]:(6) % AI=( OD Sample 530 nm−Blank)−(OD Control 530 nm−Blank)/(OD Control 530 nm−Blank) × 100

As for `CC(=O)Oc1ccc(-c2c(C)c3ccccc3oc2=O)cc1` [Compound 3h, 3-(4-acetyloxyphenyl)-4-methyl-chromen-2-one], the cytotoxicity at 100 µM with A375 cells turned out to be 43.2%. Also, the inhibition at 100 µM at soybean LOX was 33.8%. The “DCFDA Assay, % (100 μΜ)” value in the experiment with HaCaT cells is given as “no”.
`Cc1c(-c2cccc(Cl)c2)c(=O)oc2cccc(O)c12` [Compound 4b, 3-(3-chlorophenyl)-5-hydroxy-4-methyl-chromen-2-one]: the cytotoxicity at 100 µM in the experiment on A375 cells was determined as 52.8%. Besides, the inhibition at 100 µM worked out at 47.3% at soybean LOX and 27.4% with HaCaT cells.
One may read the IC50 as the concentration that inhibits the measured activity by half. Consider `CC(=O)Oc1cccc2oc(=O)c(-c3cccc(Br)c3)c(C)c12` [Compound 3g, 5-acetyloxy-3-(3-bromophenyl)-4-methyl-chromen-2-one], for which the cytotoxicity at 100 µM in the experiment with A375 cells came out at 7.02%. The concentration for half-maximal inhibition (IC50) at soybean LOX stood at 40.5 µM. Also, the inhibition at 100 µM in the experiment on HaCaT cells came out at 45.5%.
For `Cc1c(-c2ccc(O)cc2)c(=O)oc2c(Br)cc(Br)cc12` [Compound 4k, 6,8-dibromo-3-(4-hydroxyphenyl)-4-methyl-chromen-2-one], the “Cell Toxicity A375 % (100 μΜ)” value in the experiment on A375 cells (24 h) is reported as “no”. In addition, the “Soybean LOX % inhibition (100 μΜ)” value at soybean LOX (100 μΜ) was “inactive”. Besides, the inhibition at 100 µM at soybean LOX turned out to be 33.4%. The “DCFDA Assay, % (100 μΜ)” value in the experiment on HaCaT cells is “no”.
For `Cc1c(-c2ccc(O)cc2)c(=O)oc2ccccc12` [Compound 4h, 3-(4-hydroxyphenyl)-4-methyl-chromen-2-one], in the experiment on A375 cells, the cytotoxicity at 100 µM is 12.6%. Further, the inhibition at 100 µM on soybean LOX is 27.2%. Further, the “DCFDA Assay, % (100 μΜ)” value with HaCaT cells was “no”.
Turning to `Cc1c(-c2ccccc2F)c(=O)oc2cccc(O)c12` [Compound 4d, 3-(2-fluorophenyl)-5-hydroxy-4-methyl-chromen-2-one], the cytotoxicity at 100 µM in the experiment on A375 cells worked out at 11.5%. The same compound returned a 50% inhibitory concentration (IC50) against soybean LOX of 31.6 µM. The “DCFDA Assay, % (100 μΜ)” value with HaCaT cells was “no”.
Taken in the same sequence, the figures for `CC(=O)Oc1cccc2oc(=O)c(-c3cccc(F)c3)c(C)c12` [Compound 3e, 5-acetyloxy-3-(3-fluorophenyl)-4-methyl-chromen-2-one] were over 60%, 11.4 µM and “no”.

For the origin of these results see paper PMC8512853, “Synthesis, Bioactivity, Pharmacokinetic and Biomimetic Properties of Multi-Substituted Coumarin Derivatives” (Molecules, 2021).
